Like-named read-outs stand apart in the source and are kept apart here.
Legend:
[1] = test system: zebrafish larvae; assay: Larval photomotor response; format: in vivo; conditions: 120 hpf larvae; for LPR effect: at least one phase (light or dark)
[2] = test system: CYP1A protein expression; conditions: zebrafish, in vivo
[3] = test system: embryonic zebrafish; conditions: for Bioactivity across the developmental toxicity assays (morphology, EPR, LPR): exposure 6-120 hpf
[4] = test system: embryonic zebrafish; assay: Embryonic photomotor response; format: in vivo; conditions: 24 hpf embryos; for EPR effect: any phase
[5] = static exposure 6-120 hpf, 0.1-50 μM, assessed at 24 and 120 hpf
[6] = hierarchical clustering of lowest effect levels, Fig 2

## c1cc2ccc3cccc4ccc(c1)c2c34 [Pyrene]
[1]
  LPR effect: significant LPR effects

## c1ccc2c(c1)-c1cccc3cccc-2c13 [Fluoranthene]
[2]
  Tissue Type expressing CYP1A: Vasculature, Yolk

## c1ccc2c(c1)oc1ccccc12 [Dibenzofuran]
[2]
  Tissue Type expressing CYP1A: Vasculature

## Cc1ccc2cc(C)ccc2c1 [2,6-dimethylnaphthalene]
[1]
  LPR effect: All derivatives except 2,6-dimethylnaphthalene had LPR effects in at least one phase

## Cc1cccc2c1ccc1cc(C(C)C)ccc12 [Retene]
[2]
  Tissue Type expressing CYP1A: Vasculature

## CCc1ccc2c(c1)C(=O)c1ccccc1C2=O [2-ethylanthraquinone]
[1]
  LPR effect: every derivative except 2-nitroanthracene and 2-ethylanthraquinone affected LPR behavior
[2]
  Tissue Type expressing CYP1A: Yolk
[3]; zebrafish, in vivo
  Mortality and morphological effects (developmental toxicity endpoints, LELs): increased mortality
  Number of developmental endpoints affected: 15

## Cc1ccc2ccc3ccc(C)cc3c2c1 [3,6-dimethylphenanthrene]
[4]
  EPR effect: hypoactivity
[1]
  LPR effect in the light phase: effects on LPR in the light

## Oc1cccc2c(O)cccc12 [1,5-dihydroxynaphthalene]
[3]; [5]
  Mortality and morphological effects (developmental toxicity endpoints, LELs): effects on mortality or morphology

## c1ccc2ncccc2c1 [Quinoline]
[4]
  EPR effect: only had an observed effect on EPR
[3]; zebrafish, in vivo
  Developmental toxicity profile group: Group 5

## c1ccc2cc3c4ccccc4c4ccccc4c3cc2c1 [Dibenz[a,c]anthracene]
[3]; [6]
  Developmental toxicity profile group: Groups 1 and 2

## O=C1C=CC(=O)c2cc3ccccc3cc21 [1,4-anthraquinone]
[3]; 0.1-50 μM
  Bioactivity across the developmental toxicity assays (morphology, EPR, LPR): most toxic derivative tested
[3]; static exposure 6-120 hpf
  Concentrations with increased mortality: below 10 μM

## Cc1cccc2c(C)cccc12 [1,5-dimethylnaphthalene]
[2]
  Tissue Type expressing CYP1A: Liver

## Oc1ccc2ccccc2c1 [2-hydroxynaphthalene]
[3]; zebrafish, in vivo
  Mortality and morphological effects (developmental toxicity endpoints, LELs): effects on mortality or morphology

## c1ccc2cc3ccccc3cc2c1 [Anthracene]
[3]; [5]
  Mortality and morphological effects (developmental toxicity endpoints, LELs): no observed morphology effects

## O=C1C=Cc2ccccc2C1=O [1,2-naphthoquinone]
[3]; [5]
  Mortality and morphological effects (developmental toxicity endpoints, LELs): effects on mortality or morphology

## c1ccc2c(c1)cc1ccc3cccc4c5ccccc5c2c1c34 [Dibenzo[a,l]pyrene]
[3]; [6]
  Developmental toxicity profile group: Groups 1 and 2

## c1ccc2ccccc2c1 [Naphthalene]
[1]
  LPR effect in the dark phase: hyperactivity
  LPR effect in the light phase: hyperactivity

## O=[N+]([O-])c1ccc2cc3ccccc3cc2c1 [2-nitroanthracene]
[1]
  LPR effect: every derivative except 2-nitroanthracene and 2-ethylanthraquinone affected LPR behavior

## O=C1c2ccccc2C(=O)c2ccccc21 [Anthraquinone]
[3]; [5]
  Mortality and morphological effects (developmental toxicity endpoints, LELs): did not cause morphological effects

## O=[N+]([O-])c1cc2ccc3cccc4ccc(c1)c2c34 [2-nitropyrene]
[3]; 0.1-50 μM
  Bioactivity across the developmental toxicity assays (morphology, EPR, LPR): only the cumulative ‘any’ endpoints

## Oc1cccc2ccccc12 [1-hydroxynaphthalene]
[3]; zebrafish, in vivo
  Mortality and morphological effects (developmental toxicity endpoints, LELs): effects on mortality or morphology

## c1ccc2c(c1)ccc1ccccc12 [Phenanthrene]
[4]
  EPR effect: did not induce mortality or morphology changes, EPR effects
[1]
  LPR effect in the light phase: hyperactivity

## c1ccc2[nH]ccc2c1 [Indole]
[2]
  Tissue Type expressing CYP1A: Yolk

## c1ccc2c(c1)cc1ccc3cc4ccccc4c4ccc2c1c34 [Dibenzo[a,i]pyrene]
[3]; [5]
  Mortality and morphological effects (developmental toxicity endpoints, LELs): no observed morphology effects

## c1ccc2c(c1)cc1ccc3c4ccccc4cc4ccc2c1c43 [Dibenzo[a,h]pyrene]
[4]
  EPR effect in the Refractory period: hypoactive response

## Oc1cc2ccccc2cc1O [2,3-dihydroxynaphthalene]
[4]
  EPR effect: significant effects on EPR

Reference: PMC5820187 (Archives of toxicology, 2017)
